Active and inactive are the calls of the source.
Tests used:
[1] = molecular target: Mitogen-activated protein kinase 8 (Homo sapiens, UniProt P45983); type: functional;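 note: value comes from one member of a kinome-wide kinase profiling panel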
[2] = molecular target: Dual specificity mitogen-activated protein kinase kinase 1 (Homo sapiens, UniProt Q02750); assay: Navigating the Kinome. Panel member name: MAP2K1; type: functional
[3] = molecular target: Ribosomal protein S6 kinase alpha-3 (Homo sapiens, UniProt P51812); type: functional;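 note: measured within a kinome-wide profiling panel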
[4] = molecular target: Cyclin-dependent kinase 9 (Homo sapiens, UniProt P50750); type: functional;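 note: value from the CDK9 entry of a kinome-spanning kinase panel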
Focal adhesion kinase 1 = Focal adhesion kinase 1 (Homo sapiens, UniProt Q05397); type: functional;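 note: measured as one member of a kinome panel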
[5] = molecular target: Leukocyte tyrosine kinase receptor (Homo sapiens, UniProt P29376); assay: Navigating the Kinome. Panel member name: LTK; type: functional
Activated CDC42 kinase 1 = Activated CDC42 kinase 1 (Homo sapiens, UniProt Q07912); assay: Navigating the Kinome. Panel member name: ACK1; type: functional
[6] = molecular target: Serine/threonine-protein kinase pim-1 (Homo sapiens, UniProt P11309); type: functional
[7] = molecular target: Platelet-derived growth factor receptor beta (Homo sapiens, UniProt P09619); type: functional;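 note: value comes from a kinome panel, with PDGFRB tested as one panel member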
[8] = molecular target: Macrophage colony-stimulating factor 1 receptor (Homo sapiens, UniProt P07333); type: functional;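 note: value comes from the Navigating the Kinome screening panel, CSF1R member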
[9] = molecular target: Serine/threonine-protein kinase D3 (Homo sapiens, UniProt O94806); type: functional;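 note: determined within a kinase panel screen, with PRKCN as the panel member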
[10] = molecular target: T1, Serine/threonine-protein kinase Chk1 (Homo sapiens, UniProt O14757); type: functional;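 note: measured as one member of a kinome-wide kinase profiling panel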
T1 sequence (O14757 whole entry): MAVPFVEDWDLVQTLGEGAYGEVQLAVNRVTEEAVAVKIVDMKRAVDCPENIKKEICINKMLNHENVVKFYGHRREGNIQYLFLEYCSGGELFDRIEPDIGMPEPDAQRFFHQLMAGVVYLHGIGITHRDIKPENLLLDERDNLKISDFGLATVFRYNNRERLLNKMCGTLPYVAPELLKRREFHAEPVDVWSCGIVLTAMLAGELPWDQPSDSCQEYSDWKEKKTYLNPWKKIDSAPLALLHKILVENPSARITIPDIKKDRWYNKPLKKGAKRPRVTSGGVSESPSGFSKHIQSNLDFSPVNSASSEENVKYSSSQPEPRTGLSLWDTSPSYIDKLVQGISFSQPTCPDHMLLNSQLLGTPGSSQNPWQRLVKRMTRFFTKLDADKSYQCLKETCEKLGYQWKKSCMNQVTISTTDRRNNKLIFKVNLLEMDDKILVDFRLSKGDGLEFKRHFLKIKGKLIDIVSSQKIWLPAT

[11] = molecular target: Casein kinase I isoform alpha (Homo sapiens, UniProt P48729); type: functional
[12] = molecular target: Dual specificity protein kinase CLK2 (Homo sapiens, UniProt P49760); type: functional
[13] = molecular target: Proto-oncogene tyrosine-protein kinase ROS (Homo sapiens, UniProt P08922); type: functional;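 note: ROS1 tested as one member of a kinome-wide kinase panel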
[14] = molecular target: Mitogen-activated protein kinase 9 (Homo sapiens, UniProt P45984); type: functional;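 note: value from a kinome panel profiling assay, MAPK9 panel entry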
Aurora kinase B = Aurora kinase B (Homo sapiens, UniProt Q96GD4); type: functional
[15] = molecular target: Mast/stem cell growth factor receptor Kit (Homo sapiens, UniProt P10721); type: functional;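 note: KIT entry within a kinase panel assay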
Ephrin type-A receptor 2 = Ephrin type-A receptor 2 (Homo sapiens, UniProt P29317); type: functional;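 note: EPHA2 tested as one member of a kinome-wide kinase panel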
[16] = molecular target: Mitogen-activated protein kinase 14 (Homo sapiens, UniProt Q16539); type: functional;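 note: part of a kinome-wide panel, MAPK14 entry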
[17] = molecular target: Proto-oncogene tyrosine-protein kinase Src (Homo sapiens, UniProt P12931); type: functional;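 note: SRC entry within a kinome-wide kinase profiling panel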
Protein RecA = molecular target: T2, Protein RecA (Mycobacterium tuberculosis, UniProt P9WHJ3); assay: GFP-RecA MOA-DTT Measured in Biochemical System Using Plate Reader - 2047-05_Inhibitor_Dose_DryPowder_Activity. [Related pubchem assays (depositor defined):AID2223]; parameters: species or system Mycobacterium tuberculosis H37Rv
T2 sequence (P9WHJ3 whole entry): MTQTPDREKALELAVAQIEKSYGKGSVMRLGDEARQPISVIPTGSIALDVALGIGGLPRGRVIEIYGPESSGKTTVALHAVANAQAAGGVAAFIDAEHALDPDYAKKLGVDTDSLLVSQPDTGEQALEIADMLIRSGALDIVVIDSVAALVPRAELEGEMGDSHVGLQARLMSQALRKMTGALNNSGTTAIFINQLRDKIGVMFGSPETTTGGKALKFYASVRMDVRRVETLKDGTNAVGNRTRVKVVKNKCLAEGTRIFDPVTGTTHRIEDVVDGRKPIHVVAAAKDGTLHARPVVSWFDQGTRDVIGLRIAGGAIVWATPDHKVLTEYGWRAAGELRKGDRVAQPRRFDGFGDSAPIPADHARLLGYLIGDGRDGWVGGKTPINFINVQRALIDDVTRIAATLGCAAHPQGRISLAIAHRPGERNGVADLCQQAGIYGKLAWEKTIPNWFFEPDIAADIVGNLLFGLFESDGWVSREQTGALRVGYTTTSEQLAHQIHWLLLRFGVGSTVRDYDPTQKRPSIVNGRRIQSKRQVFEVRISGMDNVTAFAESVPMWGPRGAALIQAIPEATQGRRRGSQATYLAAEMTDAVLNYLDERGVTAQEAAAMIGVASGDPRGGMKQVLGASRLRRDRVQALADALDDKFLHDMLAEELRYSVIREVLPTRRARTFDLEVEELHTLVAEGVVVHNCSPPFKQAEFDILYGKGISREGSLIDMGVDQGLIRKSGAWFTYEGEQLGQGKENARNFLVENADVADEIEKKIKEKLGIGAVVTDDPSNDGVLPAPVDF

[18] = molecular target: Tyrosine-protein phosphatase non-receptor type 22 (Homo sapiens, UniProt Q9Y2R2); type: functional;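 note: confirmatory dose-response retesting of primary uHTS hits against LYP; potency is for inhibition of phosphatase activity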
[19] = non-specific 3'UTR reporter inhibition in Clone20-Shn3RL – cell-based, Renilla luciferase, cherry-picked, counter-screen for Shn3 inhibitor project, dose response (AID 624133); type: functional
[20] = general cell-killing toxicity readout – plate reader, dry powder samples, cytotoxicity control for PAX8 inhibitor project, dose response (AID 743021); type: functional, cell-based
[21] = reduced cellular PGC1a acetyl-lysine signal – cell-based, cherry-picked samples, dose response (AID 720514); type: functional;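 note: potency may reflect raised or lowered acetylation signal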

Sequence of Mitogen-activated protein kinase 8 (P45983 whole entry): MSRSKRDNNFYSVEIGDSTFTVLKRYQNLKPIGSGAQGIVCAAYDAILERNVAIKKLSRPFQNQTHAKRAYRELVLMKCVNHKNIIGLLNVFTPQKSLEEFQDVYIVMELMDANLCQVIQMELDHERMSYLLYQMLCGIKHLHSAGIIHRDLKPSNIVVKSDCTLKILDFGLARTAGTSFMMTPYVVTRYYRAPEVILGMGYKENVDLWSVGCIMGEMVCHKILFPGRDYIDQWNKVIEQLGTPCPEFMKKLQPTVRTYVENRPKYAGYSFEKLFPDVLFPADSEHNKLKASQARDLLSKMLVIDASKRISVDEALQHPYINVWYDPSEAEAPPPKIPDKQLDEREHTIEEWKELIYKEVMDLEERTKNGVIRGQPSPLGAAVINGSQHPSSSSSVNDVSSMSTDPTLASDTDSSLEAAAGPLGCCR
Sequence of Focal adhesion kinase 1 (Q05397 whole entry): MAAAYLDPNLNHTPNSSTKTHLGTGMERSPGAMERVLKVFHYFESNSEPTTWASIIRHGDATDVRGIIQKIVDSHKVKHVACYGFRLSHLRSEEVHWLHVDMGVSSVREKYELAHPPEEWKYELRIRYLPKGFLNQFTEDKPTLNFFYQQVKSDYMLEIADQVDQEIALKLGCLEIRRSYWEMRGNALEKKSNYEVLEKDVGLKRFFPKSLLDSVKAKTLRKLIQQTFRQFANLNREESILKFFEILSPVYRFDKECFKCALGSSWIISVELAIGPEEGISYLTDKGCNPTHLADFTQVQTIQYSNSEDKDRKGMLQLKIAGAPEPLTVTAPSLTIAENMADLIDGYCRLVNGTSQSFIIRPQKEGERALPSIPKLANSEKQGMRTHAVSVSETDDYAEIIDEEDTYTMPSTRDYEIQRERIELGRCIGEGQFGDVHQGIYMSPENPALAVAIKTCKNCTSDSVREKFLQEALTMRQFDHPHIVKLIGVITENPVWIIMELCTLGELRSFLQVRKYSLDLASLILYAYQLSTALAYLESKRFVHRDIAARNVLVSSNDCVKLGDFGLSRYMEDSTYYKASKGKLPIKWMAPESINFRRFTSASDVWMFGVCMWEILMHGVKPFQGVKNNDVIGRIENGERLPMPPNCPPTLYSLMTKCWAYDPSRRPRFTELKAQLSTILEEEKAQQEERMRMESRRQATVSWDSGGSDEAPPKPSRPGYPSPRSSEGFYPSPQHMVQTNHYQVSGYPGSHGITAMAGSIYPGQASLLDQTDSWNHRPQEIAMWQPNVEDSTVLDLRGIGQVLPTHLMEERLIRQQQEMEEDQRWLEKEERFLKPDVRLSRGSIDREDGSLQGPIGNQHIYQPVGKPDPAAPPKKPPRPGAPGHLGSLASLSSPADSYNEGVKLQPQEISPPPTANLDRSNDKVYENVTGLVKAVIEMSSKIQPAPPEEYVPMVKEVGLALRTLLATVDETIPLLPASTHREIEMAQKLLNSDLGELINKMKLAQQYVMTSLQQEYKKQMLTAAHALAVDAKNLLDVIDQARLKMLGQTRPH
Sequence of Cyclin-dependent kinase 9 (P50750 whole entry): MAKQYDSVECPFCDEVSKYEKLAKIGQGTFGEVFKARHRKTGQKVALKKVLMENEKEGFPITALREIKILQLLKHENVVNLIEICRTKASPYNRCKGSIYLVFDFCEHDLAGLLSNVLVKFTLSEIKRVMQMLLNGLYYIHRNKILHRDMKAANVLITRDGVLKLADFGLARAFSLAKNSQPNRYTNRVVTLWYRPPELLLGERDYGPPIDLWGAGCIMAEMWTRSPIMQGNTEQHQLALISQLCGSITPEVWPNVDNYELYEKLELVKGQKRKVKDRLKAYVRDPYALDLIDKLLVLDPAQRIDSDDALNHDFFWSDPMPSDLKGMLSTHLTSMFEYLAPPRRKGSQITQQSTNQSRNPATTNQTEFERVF
Sequence of Ribosomal protein S6 kinase alpha-3 (P51812 whole entry): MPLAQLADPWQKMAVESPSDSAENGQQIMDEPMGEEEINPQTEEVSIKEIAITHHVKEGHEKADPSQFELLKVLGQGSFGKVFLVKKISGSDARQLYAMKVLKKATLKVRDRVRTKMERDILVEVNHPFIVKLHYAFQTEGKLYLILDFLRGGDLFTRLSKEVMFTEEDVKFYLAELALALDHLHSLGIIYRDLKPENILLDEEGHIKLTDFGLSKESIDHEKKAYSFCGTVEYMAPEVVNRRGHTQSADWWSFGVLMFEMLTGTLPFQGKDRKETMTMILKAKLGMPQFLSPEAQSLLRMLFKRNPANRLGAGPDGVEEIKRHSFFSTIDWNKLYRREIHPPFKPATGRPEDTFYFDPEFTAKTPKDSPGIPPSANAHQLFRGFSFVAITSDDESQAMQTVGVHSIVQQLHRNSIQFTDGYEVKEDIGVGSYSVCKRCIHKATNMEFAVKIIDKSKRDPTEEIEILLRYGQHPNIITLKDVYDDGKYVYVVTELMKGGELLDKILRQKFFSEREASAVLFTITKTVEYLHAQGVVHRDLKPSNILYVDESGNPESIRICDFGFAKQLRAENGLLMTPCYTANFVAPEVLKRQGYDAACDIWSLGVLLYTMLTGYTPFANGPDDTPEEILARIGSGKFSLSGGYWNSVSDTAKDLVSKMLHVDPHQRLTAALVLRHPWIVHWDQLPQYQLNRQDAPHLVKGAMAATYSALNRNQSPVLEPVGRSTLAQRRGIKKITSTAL
Sequence of Serine/threonine-protein kinase D3 (O94806 whole entry): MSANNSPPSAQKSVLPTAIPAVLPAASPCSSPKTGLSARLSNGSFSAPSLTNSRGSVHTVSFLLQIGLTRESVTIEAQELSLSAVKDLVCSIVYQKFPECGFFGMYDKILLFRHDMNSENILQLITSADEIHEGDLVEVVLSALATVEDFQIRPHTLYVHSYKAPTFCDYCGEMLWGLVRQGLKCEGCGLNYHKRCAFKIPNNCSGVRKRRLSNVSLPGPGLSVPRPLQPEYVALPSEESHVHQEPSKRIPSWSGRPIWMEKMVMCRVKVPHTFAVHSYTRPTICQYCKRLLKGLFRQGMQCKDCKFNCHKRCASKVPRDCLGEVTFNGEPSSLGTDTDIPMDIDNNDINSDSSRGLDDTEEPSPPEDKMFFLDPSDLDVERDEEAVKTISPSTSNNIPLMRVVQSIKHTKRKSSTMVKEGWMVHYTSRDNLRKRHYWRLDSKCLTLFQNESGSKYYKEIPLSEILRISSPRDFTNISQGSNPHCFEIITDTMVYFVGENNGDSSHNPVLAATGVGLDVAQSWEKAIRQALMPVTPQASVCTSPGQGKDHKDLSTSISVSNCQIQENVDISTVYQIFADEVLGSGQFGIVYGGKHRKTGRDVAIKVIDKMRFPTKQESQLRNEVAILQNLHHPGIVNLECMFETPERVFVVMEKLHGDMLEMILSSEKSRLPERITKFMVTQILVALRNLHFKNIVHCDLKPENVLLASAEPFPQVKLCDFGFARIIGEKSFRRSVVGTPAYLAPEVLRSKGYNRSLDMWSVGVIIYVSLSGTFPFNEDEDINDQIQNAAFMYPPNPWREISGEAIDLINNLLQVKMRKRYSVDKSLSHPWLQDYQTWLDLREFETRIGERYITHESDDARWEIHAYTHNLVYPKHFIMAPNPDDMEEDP
Sequence of Macrophage colony-stimulating factor 1 receptor (P07333 whole entry): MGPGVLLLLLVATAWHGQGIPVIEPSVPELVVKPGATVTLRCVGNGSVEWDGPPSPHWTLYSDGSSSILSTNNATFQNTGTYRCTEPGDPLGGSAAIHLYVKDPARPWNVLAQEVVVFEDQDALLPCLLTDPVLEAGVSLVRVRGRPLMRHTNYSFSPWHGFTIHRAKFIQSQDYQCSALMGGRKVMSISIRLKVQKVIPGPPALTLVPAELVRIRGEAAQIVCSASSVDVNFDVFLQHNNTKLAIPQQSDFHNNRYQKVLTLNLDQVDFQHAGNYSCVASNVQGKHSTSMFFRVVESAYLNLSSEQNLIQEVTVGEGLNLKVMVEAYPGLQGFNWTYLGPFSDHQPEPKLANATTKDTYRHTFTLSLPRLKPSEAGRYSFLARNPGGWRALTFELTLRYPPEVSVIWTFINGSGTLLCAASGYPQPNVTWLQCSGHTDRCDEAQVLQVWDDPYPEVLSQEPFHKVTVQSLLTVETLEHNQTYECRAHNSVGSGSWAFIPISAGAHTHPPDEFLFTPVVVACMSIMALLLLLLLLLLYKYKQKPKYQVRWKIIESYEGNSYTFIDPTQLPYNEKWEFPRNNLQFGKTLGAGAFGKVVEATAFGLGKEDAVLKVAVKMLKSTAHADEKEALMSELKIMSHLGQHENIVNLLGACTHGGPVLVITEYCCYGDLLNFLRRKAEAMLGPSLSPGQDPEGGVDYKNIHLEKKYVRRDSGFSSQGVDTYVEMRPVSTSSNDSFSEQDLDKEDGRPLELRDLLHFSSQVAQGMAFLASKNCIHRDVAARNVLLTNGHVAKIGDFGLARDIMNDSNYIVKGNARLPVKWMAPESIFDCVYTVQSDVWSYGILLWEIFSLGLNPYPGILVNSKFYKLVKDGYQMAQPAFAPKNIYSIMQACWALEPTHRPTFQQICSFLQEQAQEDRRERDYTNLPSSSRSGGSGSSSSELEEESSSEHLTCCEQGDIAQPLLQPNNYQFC
Sequence of Dual specificity protein kinase CLK2 (P49760 whole entry): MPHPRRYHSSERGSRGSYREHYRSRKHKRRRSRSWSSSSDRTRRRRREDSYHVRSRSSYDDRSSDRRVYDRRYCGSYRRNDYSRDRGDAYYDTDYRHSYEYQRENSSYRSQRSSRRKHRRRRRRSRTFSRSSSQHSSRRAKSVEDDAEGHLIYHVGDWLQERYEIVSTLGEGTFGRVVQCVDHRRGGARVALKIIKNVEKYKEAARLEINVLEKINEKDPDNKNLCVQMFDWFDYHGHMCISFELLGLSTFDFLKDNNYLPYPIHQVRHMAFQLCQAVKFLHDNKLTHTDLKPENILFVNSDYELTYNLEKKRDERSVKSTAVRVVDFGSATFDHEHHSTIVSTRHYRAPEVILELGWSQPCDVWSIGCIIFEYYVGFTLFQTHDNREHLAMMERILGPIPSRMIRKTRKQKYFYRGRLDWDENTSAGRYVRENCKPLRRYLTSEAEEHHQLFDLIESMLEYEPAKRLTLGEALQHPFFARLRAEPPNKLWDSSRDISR

## O=c1[nH][nH]c2ccc(Br)cc12
[1]
  Ki: 25.1 µM (active)
[2]
  Ki: 25.1 µM (active)
[3]
  Ki: 31.6 µM (active)
[4]
  Ki: 5.01 µM (active)
Focal adhesion kinase 1
  Ki: 31.6 µM (active)
[5]
  Ki: 5.01 µM (active)
Activated CDC42 kinase 1
  Ki: 31.6 µM (active)
[6]
  Ki: 15.8 µM (active)
[7]
  Ki: 63.1 µM (active)
[8]
  Ki: 39.8 µM (active)
[9]
  Ki: 3.16 µM (active)
[10]
  Ki: 2.51 µM (active)
[11]
  Ki: 7.94 µM (active)
[12]
  Ki: 15.8 µM (active)

## COc1cc2c(cc1Nc1nc(Nc3cccc(F)c3C(N)=O)c3cc[nH]c3n1)N(C(=O)CN(C)C)CC2
[1]
  Ki: 0.158 µM (active)
[2]
  Ki: > 3.16 µM (inactive)
[3]
  Ki: 0.631 µM (active)
[4]
  Ki: > 1.58 µM (inactive)
Focal adhesion kinase 1
  Ki: 0.0398 µM (active)
[5]
  Ki: 0.00158 µM (active)
[13]
  Ki: 0.00251 µM (active)
Activated CDC42 kinase 1
  Ki: 2 µM (active)
[14]
  Ki: 0.631 µM (active)
[6]
  Ki: 3.98 µM (active)
[7]
  Ki: > 2 µM (inactive)
[8]
  Ki: > 2.51 µM (inactive)
Aurora kinase B
  Ki: > 3.98 µM (inactive)
[9]
  Ki: 0.398 µM (active)
[15]
  Ki: > 1.26 µM (inactive)
Ephrin type-A receptor 2
  Ki: > 3.16 µM (inactive)
[10]
  Ki: 2.51 µM (active)
[11]
  Ki: 1.26 µM (active)
[12]
  Ki: 0.0316 µM (active)
[16]
  Ki: > 3.98 µM (inactive)
[17]
  Ki: > 2 µM (inactive)

## CCn1nc(/C=C/c2ccccc2)nc2c(=O)n(C)c(=O)nc1-2
Protein RecA
  AC50: 0.065 µM (active)
[18]
  IC50: 13 µM (active)
[19]
  AC50: 5.79 µM (active)
[20]
  AC50: 12.7 µM (active)
[21]
  AC50: 2.87 µM (active)

Source: ChEMBL document CHEMBL1201862, “PubChem BioAssay data set” (2004)
